Experimental data taken from US12012637B2 (University of South Florida, priority 2017, dated 2024).

Columns and labels:
iPSCs [1] = assay: qRT-PCR analysis of miRNAs and genes in propranolol-treated iPSCs; assay type: cell-based, human; conditions: 50 μM
iPSCs [2] = assay: sRNAseq analysis of miRNA cistrons in propranolol-treated iPSCs
mir-498(46) = conditions: previous work (ref. 7); cited from earlier work
LIN28B [3] = assay: Immunoblot of LIN28B in propranolol-treated iPSCs; assay type: cell-based, human; conditions: 50 μM, 72 h, vs vehicle control
Experimental: (§1) Briefly, freshly dissected IH tissues were digested in 0.2% collagenase A (Roche Diagnostics, Indianapolis, IN). […] HemSCs were maintained in EBM-2 SingleQuot media Supplemented with 20% FBS.
Immunoblot analyses were performed as previously described^34 using 24 ng/ml antibodies against GAPDH (Cell Signaling Technology Cat #2118L RRID:AB_561053), […] antibodies against LIN28B (Abcam Cat #ab71415 RRID:AB_2135050) followed by IRDye 680 donkey anti-rabbit IGG secondary antibodies (0.2 μg/ml, LI-COR, 926-68073 RRID: AB_10954442). Immunoblots were imaged using the Odyssey Infrared Imaging System (LI-COR) and quantified using Image Studio software (LI-COR).

iPSCs [4] = assay: mRNA sequencing (RNAseq) and gene set enrichment analysis of propranolol-treated iPSCs; assay type: cell-based, human; conditions: 50 μM
Experimental: as §1
The cDNA library preparation was completed by second strand synthesis using SuperScript III, alkaline RNA hydrolysis, and PCR amplification for 10 cycles. mRNA libraries were prepared by utilizing the Illumina TruSeq Stranded mRNA LT protocol using 500 ng total RNA and NEB's Protoscript II reverse transcriptase for the first-strand cDNA synthesis according to the manufacturer's protocol. Individual RNAseq libraries were quality controlled on an Agilent TapeStation with a High Sensitivity D1000 ScreenTape. […] The libraries were sequenced on an Illumina NextSeq 500 sequencer 75-bp paired-end in mid-output mode in the Genomics Core Facility of The Rockefeller University.
The miRNA read annotation for sRNAseq experiments was performed as previously described^36, 37 using an slightly updated, manually curated miRNA reference based on previous work 38. […] The RNAseq data was aligned to the Human Genome Build 38 using the STAR aligner^40 (version 2.0.4j) allowing for two mismatches.
All data were tested for normality.

hemangioma stem cells = conditions: cited from earlier work
LIN28B [5] = assay: Dual immunofluorescence staining of LIN28B and GLUT1 in IH sections from propranolol-treated patients; assay type: in vivo, human
Experimental: Paraffin embedded infantile hemangioma and placenta sections (10 μm) were immunostained with primary antibodies against LIN28B 40 ug/ml (Abcam Cat #ab71415, RRID:AB_2135050) and GLUT1 3.4 ug/ml (Abcam Cat #ab40084, RRID:AB_2190927) overnight at 4° C. Sections were washed 3 times in PBS and incubated with 4 ug/ml secondary antibody Alexa Fluor 488 (Life Technologies Cat #a21202, RRID:AB_141607) for GLUT1 and alexa fluor cy3 (Life Technologies Cat #a10520, RRID:AB_2534029) for LIN28B for 30 minutes at room temperature. The sections were then washed with PBS and mounted with ProLong Diamond Antifade Mountant with DAPI, (Invitogen). Confocal images were obtained using an Olympus FV 1200 instrument. Immunofluorescence intensities were measured using ImageJ software as described^33. Fluorescence intensities were normalized to background intensities of secondary antibody only controls.

iPSCs [6] = assay: WST1 proliferation assay; assay type: cell-based, human; conditions: 50 μM, 72 hours
Experimental: iPSCs were grown in 6 well plates and split 1:10 at 3-day intervals. […] WST1 proliferation assays were performed as previously described^29.

iPSCs [7] = assay: Bright field morphology of propranolol-treated iPSCs; assay type: cell-based, human; conditions: 50 μM, 72 h, compared to control
[8] = iPSCs, 50 μM, 72 h, vs vehicle control

CC(C)NCC(O)COc1cccc2ccccc12 (centres unmarked) [Propranolol]
SERPINE1 increased expression (qRT-PCR) (iPSCs [1]; 72 h): 8.4 fold | TWIST1 increased expression (qRT-PCR) (iPSCs [1]; 72 h): 5 fold | LIN28B mRNA levels (iPSCs [1]; 72 h, data not shown): no significant differences | increase in let-7a expression (qRT-PCR) (iPSCs [1]; 72 hr): > 1. 65 fold | miR-515-5p expression (qRT-PCR) (iPSCs [1]; 72 hr): significant reduction | miR-517a expression (qRT-PCR) (iPSCs [1]; 72 hr): significant reduction | miR-518C expression (qRT-PCR) (iPSCs [1]; 72 hr): significant reduction | miR-519d expression (qRT-PCR) (iPSCs [1]; 72 hr): significant reduction | downregulation of mir-498(46) (iPSCs [2]; [8]): 1.6 fold | increase in expression of cistron mir-98(13) (iPSCs [2]; [8]): 3.2 fold | Normalized frequency, cistron mir-10a(1) (iPSCs [2]; propranolol-treated iPSCs): 0.0168% | Normalized frequency, cistron mir-10b(1) (iPSCs [2]; propranolol-treated iPSCs): 0.0176% | Normalized frequency, cistron mir-21(1) (iPSCs [2]; propranolol-treated iPSCs): 10.5844% | Normalized frequency, cistron mir-33b(1) (iPSCs [2]; propranolol-treated iPSCs): 0.002% | Normalized frequency, cistron mir-98(13) (iPSCs [2]; propranolol-treated iPSCs): 0.2313% | Normalized frequency, cistron mir-188(8) (iPSCs [2]; propranolol-treated iPSCs): 0.1459% | Normalized frequency, cistron mir-488(1) (iPSCs [2]; propranolol-treated iPSCs): 0.0022% | Normalized frequency, cistron mir-498(46) (iPSCs [2]; propranolol-treated iPSCs): 0.4075% | Normalized frequency, cistron mir-1226(1) (iPSCs [2]; propranolol-treated iPSCs): 0% | Normalized frequency, cistron mir-3155(1) (iPSCs [2]; propranolol-treated iPSCs): 0.0014% | levels of mir-498(46) in propranolol-treated IH tumors vs proliferative IH (mir-498(46)): significantly lower levels | decrease in LIN28B protein levels (LIN28B [3]): 2.3 fold | SERPINE1 increase (RNAseq) (iPSCs [4]; 72 h): 12 fold | TWIST1 increase (RNAseq) (iPSCs [4]; 72 h): 2.9 fold | gene set analysis: TGF-β signaling pathway (iPSCs [4]; 72 h, FDR 0.06): upregulation | gene set analysis: adipogenesis pathway (iPSCs [4]; 72 h, FDR 0.09): upregulation | gene set analysis: E2F targets (iPSCs [4]; 72 h, FDR<0.25): downregulation | gene set analysis: G2M checkpoint (iPSCs [4]; 72 h, FDR<0.25): downregulation | gene set analysis: mitotic spindle pathway (iPSCs [4]; 72 h, FDR<0.25): downregulation | gene set enrichment: genes defining EMT (iPSCs [4]; 72 h vs control, FDR 0.00046): enrichment | adipogenesis in hemangioma stem cells (hemangioma stem cells): induce adipogenesis | LIN28B and GLUT1 immunostaining (LIN28B [5]; propranolol-treated proliferative IH compared to untreated proliferative IH): markedly decreased | LIN28B to GLUT1 immunofluorescence signal intensity, increase in proliferative IH compared to propranolol treated IH (LIN28B [5]; untreated proliferative IH vs propranolol treated IH samples): ~2 fold | decrease in cell proliferation (iPSCs [6]): 33% | EMT associated morphological changes (iPSCs [7]): more elongated cellular shape
